Patent US20030113913A1, “Method of enhancing self renewal of stem cells and uses thereof” (PETER MACCALLUM CANCER INSTITUTE, priority 2001, published 2003)

Legend:
[1] = system: lin− c-kit+ Sca-1+ CD45.2+ (LKS) murine hematopoietic precursors; test: Serial transplantation of LKS hematopoietic precursors cultured with or without ATRA (congenic mouse model); format: in vivo; conditions: for donor repopulating levels of quaternary transplant recipients: CD45.2+ donor cells in peripheral blood, mean ± SEM
Procedure: 2000 FACS-enriched hematopoietic precursors (lin− c-kit+ Sca-1+) were added to wells containing media and cytokines (SCF, IL-6, IL-11 and Flt-3 ligand), and cultured without (No ATRA) or with (ATRA) 1 umol ATRA. Irradiated primary Ly5.1 recipients (6 mice per group) were transplanted with 100 000 normal Ly5.1 bone marrow cells together with 1000 noncultured (Start) Ly5.2 lin− c-kit+ Sca-1+ cells or with all cells that grew from 1000 of these precursors after 3 (3D) or 7 (7D) days in liquid suspension culture. Subsequent transplants (secondary, tertiary and quaternary) were performed using fractions of bone marrow harvested from the primary, secondary or tertiary, respectively, transplant recipients. Data are expressed as the mean +/− SEM donor cell reconstitution in the peripheral blood of transplanted recipients analyzed at 6 months (primary recipients) or 3 months (secondary, tertiary and quaternary recipients) post-transplant.
These studies may be proven using in vivo assays, preferably using small animal models, more preferably using the congenic mouse hematopoietic stem cell transplantation model. This model relies on the use of donor and recipient mice that can be distinguished from each other by the presence of different epitopes for the leukocyte common antigen, which is present on all white blood cells.
Irradiated CD45.1+ primary murine recipients were transplanted with 1×10^5 normal CD45.1+ bone marrow cells together with 1000 freshly isolated lin− c-kit+ Sca-1+ CD45.2+ (LKS) murine hematopoietic precursors or with all cells that grew from 1000 LKS after 3 or 7 days of culture with or without 1 μM ATRA. Primary recipients were euthanased 6 months post-transplant, their femoral marrows flushed and pooled within treatment groups and bone marrow from 1/10th of a femur of these mice were injected into each secondary irradiated recipient. Subsequent serial transplants were likewise performed at 4 month intervals post-transplant, with the 5th serial transplant currently being assessed. Recipient mice were analysed for multilineage repopulating donor cells (>5% CD45.2+) in each round of transplants.

[2] = system: RARβ2; test: RT-PCR expression of RARβ2 in LKS+ and LKS− cells cultured with or without ATRA; format: cell-based, murine; conditions: cells derived from LKS+ and LKS− cultured with 1 μmol ATRA for 3, 7 or 14 days
Procedure: FACS-enriched hematopoietic precursors (lin− c-kit+ Sca-1+ or lin− c-kit+ Sca-1−) were added to wells containing media and cytokines (SCF, IL-6, IL-11 and Flt-3 ligand), and cultured without (No ATRA) or with (+ATRA) 1 μmol ATRA for 3, 7 or 14 days. […] LKS+=lin− c-kit+ Sca-1+ cells, LKS−=lin− c-kit+ Sca-1− cells; D=day of culture.
(§1) Consideration was then given to the expression of the different RARs by progeny derived from lin− c-kit+ Sca-1+ cells (LKS+) or lin− c-kit+ Sca-1− cells (LKS−) after they had been cultured with or without ATRA for 3, 7 and 14 days.

[3] = system: RARγ1; test: RT-PCR expression of RARγ1 in LKS+ and LKS− cells cultured with or without ATRA; format: cell-based, murine
Procedure: FACS-enriched hematopoietic precursors (lin− c-kit+ Sca-1+ or lin− c-kit+ Sca-1−) were added to wells containing media and cytokines (SCF, IL-6, IL-11 and Flt-3 ligand), and cultured without (No ATRA) or with (+ATRA) 1 μmol ATRA for 3, 7 or 14 days. After culture, the cells were retrieved, mRNA prepared and expression of RAR γ 1 was analysed by RT-PCR methods. LKS+=lin− c-kit+ Sca-1+ cells, LKS−=lin− c-kit+ Sca-1− cells; D=day of culture.
as §1

CC1=C(/C=C/C(C)=C/C=C/C(C)=C/C(=O)O)C(C)(C)CCC1 [ATRA, all trans-retinoic acid]
donor repopulating levels of quaternary transplant recipients ([1]; LKS cultured 3 days with 1 μM ATRA): 20.09±8.63% | donor repopulating levels of quaternary transplant recipients ([1]; LKS cultured 7 days with 1 μM ATRA): 14.98±5.94% | multilineage donor reconstituting ability in serial transplant recipients ([1]; all serial transplant recipients of 3 day and 7 day ATRA-treated LKS (1 μM)): significant multilineage donor reconstituting ability | evidence of leukemia in recipient mice ([1]; recipients of ATRA-treated LKS, successive rounds of transplants): nor was there any evidence of leukemia | marrow cellularity of transplanted mice ([1]; successive rounds of transplants, all treatment groups compared): no significant difference in marrow cellularity | RARβ2 expression [2]: upregulates RARβ2 in cultured cells | RARγ1 expression ([3]; LKS+ cells cultured with 1 μmol ATRA for 3, 7 or 14 days): maintained | RARγ1 expression ([3]; LKS− cells cultured with 1 μmol ATRA): not expressed
